According to patent publication US20250176554A1, “NON-TOXIC […] IN WHICH OZONE SYNERGIZE WITH CARBON DIOXIDE” (priority 2022, published 2025):

How the values were obtained:
[1] = system: coccid insects; experiment: two-stage ozone then carbon dioxide fumigation, text statements on the insects/pests; format: in vivo
Text: (§1) Step 1: Placing the pest control object into a sample bottle, which contains coccid insects, and sealing the sample bottle with a pore size of 10 um filter membrane. This configuration simulates the environment of insects or other creatures hiding deep inside fruits, within stems, or shielded by stacked fruit packages (this test was also validated using stacked sugar apples and wax apples, yielding similar results). The sample is then placed in a fumigation chamber.
(§2) Step 2: After closing the fumigation chamber, vacuuming the chamber to 0.2 bar-0.9 bar, then maintaining this lower pressure for about 2 minutes to confirm that the fumigation chamber is well sealed.
(§3) Step 3: Introducing ozone at a concentration ranging from 40 ppm to 160 ppm into the fumigation chamber until 1.0-1.7 bar, and fumigating for 3-20 minutes.
(§4) Step 4: Exhausting the gas from the fumigation chamber, then vacuuming it to 0.2-0.9 bar, and maintaining this low pressure for about 2 minutes.
(§5) Step 5: Introducing high-concentration carbon dioxide into the fumigation chamber until 1.0-1.7 bar, fumigating for 10-30 minutes.
(§6) Step 6: After the above pest control steps, exhausting the gases from the fumigation chamber and restoring the chamber to atmospheric pressure, then removing the tested objects.
(§7) Step 7: Spraying 0.5 wt % methylene blue aqueous solution (light blue) or 0.05 wt % neutral red staining solution (light red) onto the insects and waiting for 60 minutes. Well-stained insects indicate death. All values are expressed as mean±SD. ANOVA or other appropriate statistical analysis methods were used, with P<0.05 indicating a significant difference.

[2] = system: silkworm eggs; experiment: ozone then carbon dioxide fumigation of silkworm eggs, hatching; format: in vivo; settings: ozone pressure 1.4 bar; carbon dioxide introduced for 20 minutes
Experimental: (§8) Using the same method as Embodiment 1, except that the treatment period of carbon dioxide is adjusted to 10-50 minutes. The evacuation pressure in the fumigation chamber in Step 2 is 0.3 bar. In Step 3, the pressure after the ozone input is controlled within 1.0-1.4 bar, and the pest-control treatment is conducted for 5 minutes. In Step 4, the fumigation chamber is evacuated to 0.3 bar. In Step 5, the pressure after the input of carbon dioxide (99.5% concentration) is controlled at 1.4 bar, and the pest-control treatment is conducted for 10-50 minutes.
Using the same experimental conditions as Embodiment 5, when the ozone pressure is 1.4 bar, silkworm eggs were used for testing.

[3] = system: Pseudococcidae; experiment: two-stage ozone then carbon dioxide fumigation, lethal rate by staining; format: in vivo
Text: as §1, §2, §3, §4, §5, §6, §7
(§9) Using the same method as Embodiment 1, except that the concentration of the introduced ozone is adjusted (ranging from 40 ppm to 160 ppm). The pressure of the fumigation chamber in Step 2 is about 0.3 bar; in Step 3, it is about 1.3 bar, with the process lasting 5 minutes; in Step 4, it is about 0.3 bar; and in Step 5, the pressure is 1.3 bar, with the process lasting 15 minutes.
(§10) Using the same method as Embodiment 2, except that the evacuation pressure in Step 2 is adjusted (ranging from 0.2 bar to 0.9 bar); the concentration of the introduced ozone is approximately 70 ppm, and other parameters remain the same as those in Embodiment 2.
(§11) Using the same method as Embodiment 2, except that the ozone treatment duration in […] is adjusted (ranging from 3 to 30 minutes); the concentration of the introduced ozone is 70 ppm, and ozone is introduced until the pressure reaches 1.0 bar. Other parameters remain the same as those in Embodiment 2.
as §8

[4] = system: Icerya purchasi; experiment: as above; format: in vivo
Text: as §1, §2, §3, §4, §5, §6, §7, §9, §10, §11, §8

[5] = system: aphids; settings: 10% CO2 in greenhouses; cited from earlier work
[6] = system: pests; settings: 60% CO2, asparagus; cited from earlier work
[7] = system: dried apricot pests; settings: CO2 under 0.5 times atmospheric pressure; cited from earlier work
[8] = system: red flour beetle; settings: pressurized CO2, 5 times to 15 times of the standard atmospheric pressure; cited from earlier work
[9] = system: mite eggs; settings: vacuum pumping then 60% CO2, normal temperature and normal pressure, at least 16 hours; cited from earlier work
[10] = system: pests; settings: CO2 with 1.8 times of the standard atmospheric pressure; cited from earlier work
[11] = Step 2 vacuumed pressure 0.2 bar, ozone 70 ppm to 1.3 bar 5 min, then CO2 1.3 bar 15 min
[12] = Step 2 vacuumed pressure 0.3 bar, ozone 70 ppm to 1.3 bar 5 min, then CO2 1.3 bar 15 min
[13] = Step 2 vacuumed pressure 0.4 bar, ozone 70 ppm to 1.3 bar 5 min, then CO2 1.3 bar 15 min
[14] = Step 2 vacuumed pressure 0.5 bar, ozone 70 ppm to 1.3 bar 5 min, then CO2 1.3 bar 15 min
[15] = Step 2 vacuumed pressure 0.6 bar, ozone 70 ppm to 1.3 bar 5 min, then CO2 1.3 bar 15 min
[16] = Step 2 vacuumed pressure 0.9 bar, ozone 70 ppm to 1.3 bar 5 min, then CO2 1.3 bar 15 min
[17] = ozone 40 ppm to 1.3 bar 5 min, evacuation 0.3 bar, then CO2 1.3 bar 15 min
[18] = ozone 70 ppm to 1.0 bar for 3 min, evacuation 0.3 bar, then CO2 1.3 bar 15 min
[19] = ozone 70 ppm to 1.0 bar for 5 min, evacuation 0.3 bar, then CO2 1.3 bar 15 min
[20] = ozone 70 ppm to 1.0 bar for 10 min, evacuation 0.3 bar, then CO2 1.3 bar 15 min
[21] = ozone 70 ppm to 1.0 bar for 15 min, evacuation 0.3 bar, then CO2 1.3 bar 15 min
[22] = ozone 70 ppm to 1.0 bar for 20 min, evacuation 0.3 bar, then CO2 1.3 bar 15 min
[23] = ozone 70 ppm to 1.0 bar for 30 min, evacuation 0.3 bar, then CO2 1.3 bar 15 min
[24] = ozone 70 ppm to 1.3 bar 5 min, evacuation 0.3 bar, then CO2 1.3 bar 15 min
[25] = ozone 100 ppm to 1.3 bar 5 min, evacuation 0.3 bar, then CO2 1.3 bar 15 min
[26] = ozone 130 ppm to 1.3 bar 5 min, evacuation 0.3 bar, then CO2 1.3 bar 15 min
[27] = ozone 160 ppm to 1.3 bar 5 min, evacuation 0.3 bar, then CO2 1.3 bar 15 min
[28] = ozone at 1.0 bar 5 min, evacuation 0.3 bar, CO2 99.5% at 1.4 bar for 10 min
[29] = ozone at 1.0 bar 5 min, evacuation 0.3 bar, CO2 99.5% at 1.4 bar for 15 min
[30] = ozone at 1.0 bar 5 min, evacuation 0.3 bar, CO2 99.5% at 1.4 bar for 20 min
[31] = ozone at 1.0 bar 5 min, evacuation 0.3 bar, CO2 99.5% at 1.4 bar for 30 min
[32] = ozone at 1.0 bar 5 min, evacuation 0.3 bar, CO2 99.5% at 1.4 bar for 40 min
[33] = ozone at 1.4 bar 5 min, evacuation 0.3 bar, CO2 99.5% at 1.4 bar for 10 min
[34] = ozone at 1.4 bar 5 min, evacuation 0.3 bar, CO2 99.5% at 1.4 bar for 15 min
[35] = ozone at 1.4 bar 5 min, evacuation 0.3 bar, CO2 99.5% at 1.4 bar for 20 min
[36] = ozone at 1.4 bar 5 min, evacuation 0.3 bar, CO2 99.5% at 1.4 bar for 30 min
[37] = ozone at 1.4 bar 5 min, evacuation 0.3 bar, CO2 99.5% at 1.4 bar for 40 min

With ozone and carbon dioxide the “time to completely kill the pests” value ([1]; ozone 5 minutes at 1.0 bar, in synergy with carbon dioxide) was “about 30 minutes”, the “time to completely kill the pests” value ([1]; ozone 5 minutes at 1.4 bar, then carbon dioxide) was 15 min and the “pest control / pest elimination” value ([1]; two-stage fumigation, within 20 minutes) was 100%. The “hatching of silkworm eggs” value [2] was “none of the silkworm eggs in the experimental group hatched”.

In the case of `O=[O+][O-]` [ozone], the Lethal rate ([1]; ozone 70 ppm, 90 minutes after the treatment in Step 3) is reported as 100%, the final lethal rate ([1]; vacuum pressure 0.4 or 0.5 bar, ozone 70 ppm, after 90 minutes of ozone treatment) is reported as 100% and the Lethal rate [3, 11] is reported as 100 ± 0%. For the same compound, the Lethal rate [3, 12] was 91 ± 5%, the Lethal rate [3, 13] was 82 ± 10% and the Lethal rate [3, 14] was 71 ± 13%. The Lethal rate [3, 15] was 52 ± 14%, the Lethal rate [3, 16] was 30 ± 17% and the Lethal rate [3, 17] was 81 ± 11%. For the same compound, the Lethal rate [3, 18] was 61 ± 16%, the Lethal rate [3, 19] was 71 ± 10% and the Lethal rate [3, 20] was 91 ± 7%. It also gave a Lethal rate [3, 21] of 100 ± 0%, a Lethal rate [3, 22] of 100 ± 0% and a Lethal rate [3, 23] of 100 ± 0%. It also gave a Lethal rate [3, 24] of 93 ± 7%, a Lethal rate [3, 25] of 100 ± 0% and a Lethal rate [3, 26] of 100 ± 0%. It also gave a Lethal rate [3, 27] of 100 ± 0%, a Lethal rate [4, 11] of 100 ± 0% and a Lethal rate [4, 12] of 96 ± 3%. The Lethal rate [4, 13] was 85 ± 12%, the Lethal rate [4, 14] was 68 ± 17% and the Lethal rate [4, 15] was 48 ± 16%. The Lethal rate [4, 16] was 37 ± 18%, the Lethal rate [4, 17] was 76 ± 10% and the Lethal rate [4, 18] was 64 ± 14%. For the same compound, the Lethal rate [4, 19] was 68 ± 9%, the Lethal rate [4, 20] was 87 ± 9% and the Lethal rate [4, 21] was 100 ± 1%. It also gave a Lethal rate [4, 22] of 100 ± 0%, a Lethal rate [4, 23] of 100 ± 0% and a Lethal rate [4, 24] of 98 ± 3%. It also gave a Lethal rate [4, 25] of 100 ± 0%, a Lethal rate [4, 26] of 100 ± 0% and a Lethal rate [4, 27] of 100 ± 0%.

For `O=C=O` [CO2, carbon dioxide], the “time required to achieve minimal pest control effects” value [5] is listed as “one week”, the “time required to achieve minimal pest control” value [6] is listed as “more than 48 hours” and the “time required to kill 90% of pests” value [7] is listed as “over 24 hours”. For the same compound, the “time required to kill most of the pests” value [8] was “at least 1.8 days”, the “mortality of mite eggs” value [9] was 89% and the “time required to achieve the minimal pest control” value [10] was “at least 120 minutes”. It also gave a Lethal rate [3, 28] of 81 ± 6%, a Lethal rate [3, 29] of 91 ± 8% and a Lethal rate [3, 30] of 100 ± 1%. For the same compound, the Lethal rate [3, 31] was 100 ± 0%, the Lethal rate [3, 32] was 100 ± 0% and the Lethal rate [3, 33] was 89 ± 8%. For the same compound, the Lethal rate [3, 34] was 100 ± 1%, the Lethal rate [3, 35] was 100 ± 0% and the Lethal rate [3, 36] was 100 ± 0%. The Lethal rate [3, 37] was 100 ± 0%, the Lethal rate [4, 28] was 72 ± 11% and the Lethal rate [4, 29] was 88 ± 11%. It also gave a Lethal rate [4, 30] of 97 ± 4%, a Lethal rate [4, 31] of 100 ± 0% and a Lethal rate [4, 32] of 100 ± 0%. It also gave a Lethal rate [4, 33] of 92 ± 11%, a Lethal rate [4, 34] of 100 ± 0% and a Lethal rate [4, 35] of 100 ± 0%. For the same compound, the Lethal rate [4, 36] was 100 ± 0% and the Lethal rate [4, 37] was 100 ± 0%.
